Laboratory results published in US20120190752A1, “EXO-S-MECAMYLAMINE METHOD, USE, AND COMPOUND FOR TREATMENT” (Targacept Inc., priority 2009, published 2012).

Tested on: subjects with major depressive disorder (MDD) who were inadequate responders to citalopram
Assay: QIDS-SR, Phase 2b add-on trial
Type: in vivo, human
Source text: The 30 item Inventory of Depressive Symptomatology (IDS) (Rush et al. 1986, 1996) and the 16 item Quick Inventory of Depressive Symptomatology (QIDS) (Rush et al. 2003) are designed to assess the severity of depressive symptoms. Both the IDS and the […] are available in the clinician (IDS-C30 and QIDS-C16) and self-rated versions (IDS-SR30 and QIDS-SR16). The IDS and QIDS assess all the criterion symptom domains designated by the American Psychiatry Association Diagnostic and Statistical Manual of Mental Disorders—4th edition (DSM-IV) (APA 1994) to diagnose a major depressive episode. These assessments can be used to screen for depression, although they have been used predominantly as measures of symptom severity. The seven day period prior to assessment is the usual time frame for assessing symptom severity. The […] and QIDS-SR16 cover only the nine diagnostic symptom domains used to characterize a major depressive episode, without items to assess atypical, melancholic or their commonly associated symptoms. All 16 items on the QIDS are included within the IDS. The IDS-C30 and […] include the criterion symptoms, as well as commonly associated symptoms (e.g. anxiety, irritability) and items relevant to melancholic, or atypical symptom features. Both versions are sensitive to change, with medications, psychotherapy, or somatic treatments, making them useful for both research and clinical purposes. The psychometric properties of both the IDS and QIDS, have both been established in various study samples. See Rush A J, Trivedi M H, Ibrahim H M, et al., The 16-item Quick Inventory of Depressive Symptomatology (QIDS), Clinician Rating (QIDS-C), and Self-Report (QIDS-SR): a psychometric evaluation in patients with chronic major depression. Biol Psychiatry.; 54: 573-583 (2003).
In more detail, a multi-center double-blind, randomized, placebo-controlled, parallel group, flexible dose titration study of TC-5214 as adjunctive therapy in subjects with major depressive disorder (MDD) who were inadequate responders to citalopram was conducted in centers in the US and India. The study consisted of a screening period, baseline/washout period, open-label phase, double-blind phase, and a follow-up visit. Subject participation in the study could continue for up to 16 weeks of treatment. Following a washout period of up to 28 days for other antidepressants, subjects with MDD and a MADRS total score >/=28 and a Clinical Global Impression-Severity (CGI-S) score >/=4 were enrolled on Day 1 into an open-label citalopram-only phase of the study. This phase lasted 8 weeks, with citalopram (CIT) dose increased from a once-daily dose of 20 mg (Day 1 through Week 4) to 40 mg (Week 4 through Week 8). A total of 579 subjects entered the open-label citalopram phase. At Week 8, subjects who tolerated 40 mg CIT, but whose MADRS score was reduced <50% from baseline and no lower than 17, and CGI-S≧4, were considered inadequate responders. These subjects (n=270) were randomized in a double-blind fashion to receive either placebo or TC-5214-23 as add-on therapy to continued CIT. The double-blind phase of the study also lasted 8 weeks (Week 8 to Week 16). Study drug, TC-5214-23 or placebo, was started at 2 mg daily (1 mg twice per day [BID] dosing), added on to continuing CIT (40 mg PO qd). After 2 weeks of treatment, the dose of TC-5214 could be increased to 4 mg (2 mg BID) or continued unchanged, with up-titration based upon good tolerability and inadequate therapeutic response. After a further 2 weeks, the dose of TC-5214 could be increased again to 8 mg (4 mg BID) if judged appropriate by the investigator, based upon good tolerability and inadequate therapeutic response. At any time during the double-blind phase of the study, placebo or TC-5214-23 could be reduced to the previous dose level following the emergence of unacceptable adverse events (AEs). […] At this follow-up, any signs or symptoms of relapse were evaluated. […]

[1] = ITT N=265, week of double-blind treatment
[2] = ITT and PP, at every assessment week, result in words
[3] = ITT, Double Blind Week 18 (Follow-up)
[4] = ITT, Double Blind Week 18 LOCF (Follow-up), change from Week 16
[5] = PP, Double Blind Week 16 LOCF (change from Week 8)
[6] = PP, Double Blind Week 18 (Follow-up)
[7] = PP, Double Blind Week 18 LOCF (Follow-up), change from Week 16

## CNC1(C)C2CCC(C2)C1(C)C (stereo in doubt) [TC-5214, (S)—N,2,3,3-tetramethylnorbornan-2-amine]
[1]
  onset of separation from placebo, subject rated remission QIDS-SR≦5 (FIG. 2): ≤ 2 week
  onset of separation from placebo, subject rated response QIDS-SR≧50% (FIG. 3): ≤ 1 week
ITT and PP populations, result in words
  QIDS-SR score change from baseline compared with placebo: statistically significant decreases (improvements)
[2]
  QIDS remission proportion compared with placebo: higher proportion of subjects with remission
  QIDS responders (reduction from baseline ≧50%) proportion compared with placebo: higher proportion of responders
ITT, Double Blind Week 10
  QIDS reduction from baseline ≧50%: Subjects with Response (number): 29
  QIDS reduction from baseline ≧50%: Subjects with Response (percentage): 22%
  QIDS reduction from baseline ≧50%: Subjects without Response (number): 104
  QIDS reduction from baseline ≧50%: Subjects without Response (percentage): 78%
  QIDS score ≦5: Subjects with Remission (number): 19
  QIDS score ≦5: Subjects with Remission (percentage): (14%)
  QIDS score ≦5: Subjects without Remission (number): 114
  QIDS score ≦5: Subjects without Remission (percentage): (86%)
ITT, Double Blind Week 12
  QIDS reduction from baseline ≧50%: Subjects with Response (number): 44
  QIDS reduction from baseline ≧50%: Subjects with Response (percentage): 33%
  QIDS reduction from baseline ≧50%: Subjects without Response (number): 89
  QIDS reduction from baseline ≧50%: Subjects without Response (percentage): 67%
  QIDS score ≦5: Subjects with Remission (number): 25
  QIDS score ≦5: Subjects with Remission (percentage): (19%)
  QIDS score ≦5: Subjects without Remission (number): 108
  QIDS score ≦5: Subjects without Remission (percentage): (81%)
ITT, Double Blind Week 14
  QIDS reduction from baseline ≧50%: Subjects with Response (number): 67
  QIDS reduction from baseline ≧50%: Subjects with Response (percentage): 50%
  QIDS reduction from baseline ≧50%: Subjects without Response (number): 66
  QIDS reduction from baseline ≧50%: Subjects without Response (percentage): 50%
  QIDS score ≦5: Subjects with Remission (number): 45
  QIDS score ≦5: Subjects with Remission (percentage): (34%)
  QIDS score ≦5: Subjects without Remission (number): 88
  QIDS score ≦5: Subjects without Remission (percentage): (66%)
ITT, Double Blind Week 16
  QIDS reduction from baseline ≧50%: Subjects with Response (number): 88
  QIDS reduction from baseline ≧50%: Subjects with Response (percentage): 66%
  QIDS reduction from baseline ≧50%: Subjects without Response (number): 45
  QIDS reduction from baseline ≧50%: Subjects without Response (percentage): 34%
  QIDS score ≦5: Subjects with Remission (number): 60
  QIDS score ≦5: Subjects with Remission (percentage): (45%)
  QIDS score ≦5: Subjects without Remission (number): 73
  QIDS score ≦5: Subjects without Remission (percentage): (55%)
ITT, Double Blind Week 16 LOCF (change from Week 8)
  QIDS-SR Mean Difference between TC-5214 and Placebo: 3.79
[3]
  QIDS reduction from baseline ≧50%: Subjects with Response (number): 92
  QIDS reduction from baseline ≧50%: Subjects with Response (percentage): 69%
  QIDS reduction from baseline ≧50%: Subjects without Response (number): 41
  QIDS reduction from baseline ≧50%: Subjects without Response (percentage): 31%
  QIDS score ≦5: Subjects with Remission (number): 75
  QIDS score ≦5: Subjects with Remission (percentage): (56%)
  QIDS score ≦5: Subjects without Remission (number): 58
  QIDS score ≦5: Subjects without Remission (percentage): (44%)
[4]
  QIDS-SR Adjusted Mean change: −0.52
  QIDS-SR Mean Difference between TC-5214 and Placebo: 0.58
ITT, Week 8 to Week 16 LOCF
  QIDS-SR Difference vs Placebo + CIT: −3.76
ITT, change from Week 8 (double-blind baseline) to Week 16 LOCF, add-on to citalopram
  QIDS-SR Adj. Mean change: −8.07
PP population, Week 18, result in words
  QIDS-SR score change at Week 18 compared with placebo: statistically significant decrease
PP, Double Blind Week 10
  QIDS reduction from baseline ≧50%: Subjects with Response (number): 25
  QIDS reduction from baseline ≧50%: Subjects with Response (percentage): 22%
  QIDS reduction from baseline ≧50%: Subjects without Response (number): 88
  QIDS reduction from baseline ≧50%: Subjects without Response (percentage): 78%
  QIDS score ≦5: Subjects with Remission (number): 17
  QIDS score ≦5: Subjects with Remission (percentage): 15%
  QIDS score ≦5: Subjects without Remission (number): 96
  QIDS score ≦5: Subjects without Remission (percentage): 85%
PP, Double Blind Week 12
  QIDS reduction from baseline ≧50%: Subjects with Response (number): 40
  QIDS reduction from baseline ≧50%: Subjects with Response (percentage): 35%
  QIDS reduction from baseline ≧50%: Subjects without Response (number): 73
  QIDS reduction from baseline ≧50%: Subjects without Response (percentage): 65%
  QIDS score ≦5: Subjects with Remission (number): 23
  QIDS score ≦5: Subjects with Remission (percentage): 20%
  QIDS score ≦5: Subjects without Remission (number): 90
  QIDS score ≦5: Subjects without Remission (percentage): 80%
PP, Double Blind Week 14
  QIDS reduction from baseline ≧50%: Subjects with Response (number): 59
  QIDS reduction from baseline ≧50%: Subjects with Response (percentage): 52%
  QIDS reduction from baseline ≧50%: Subjects without Response (number): 54
  QIDS reduction from baseline ≧50%: Subjects without Response (percentage): 48%
  QIDS score ≦5: Subjects with Remission (number): 39
  QIDS score ≦5: Subjects with Remission (percentage): 35%
  QIDS score ≦5: Subjects without Remission (number): 74
  QIDS score ≦5: Subjects without Remission (percentage): 65%
PP, Double Blind Week 16
  QIDS reduction from baseline ≧50%: Subjects with Response (number): 80
  QIDS reduction from baseline ≧50%: Subjects with Response (percentage): 71%
  QIDS reduction from baseline ≧50%: Subjects without Response (number): 33
  QIDS reduction from baseline ≧50%: Subjects without Response (percentage): 29%
  QIDS score ≦5: Subjects with Remission (number): 55
  QIDS score ≦5: Subjects with Remission (percentage): 49%
  QIDS score ≦5: Subjects without Remission (number): 58
  QIDS score ≦5: Subjects without Remission (percentage): 51%
[5]
  QIDS-SR Adjusted Mean change: −8.60
  QIDS-SR Mean Difference between TC-5214 and Placebo: 3.90
[6]
  QIDS reduction from baseline ≧50%: Subjects with Response (number): 84
  QIDS reduction from baseline ≧50%: Subjects with Response (percentage): 74%
  QIDS reduction from baseline ≧50%: Subjects without Response (number): 29
  QIDS reduction from baseline ≧50%: Subjects without Response (percentage): 26%
  QIDS score ≦5: Subjects with Remission (number): 69
  QIDS score ≦5: Subjects with Remission (percentage): 61%
  QIDS score ≦5: Subjects without Remission (number): 44
  QIDS score ≦5: Subjects without Remission (percentage): 39%
[7]
  QIDS-SR Adjusted Mean change: −0.65
  QIDS-SR Mean Difference between TC-5214 and Placebo: 0.84
